Reference: ChEMBL document CHEMBL5365420, “Kinetics, Thermodynamics, and Structural Effects of Quinoline-2-Carboxylates, Zinc-Binding Inhibitors of New Delhi Metallo-β-lactamase-1 Re-sensitizing Multidrug-Resistant Bacteria for Carbapenems” (J Med Chem, 2023)

Tests used:
Assay type in all cases: functional
Escherichia coli [1] = assay: Antibacterial activity against clinical isolate Escherichia coli K12 J53-ST10 684/18 expressing blaNDM-1 co-expressing blaCMY-2 and blaOXA-10 assessed as meropenem MIC at 23.5 uM measured after 20 hrs by broth microdilution assay (reference value: 5.03 mg/L)
Escherichia coli [2] = assay: Antibacterial activity against clinical isolate Escherichia coli K12 J53-ST10 684/18 expressing blaNDM-1 co-expressing blaCMY-2 and blaOXA-10 assessed as meropenem MIC at 47 uM measured after 20 hrs by broth microdilution assay (reference value: 10.06 mg/L)
Escherichia coli [3] = assay: Antibacterial activity against clinical isolate Escherichia coli K12 J53-ST10 696/17 expressing blaNDM-1 co-expressing blaCMY-4 assessed as meropenem MIC at 23.5 uM measured after 20 hrs by broth microdilution assay (reference value: 5.03 mg/L)
Escherichia coli [4] = assay: Antibacterial activity against clinical isolate Escherichia coli K12 J53-ST10 696/17 expressing blaNDM-1 co-expressing blaCMY-4 assessed as meropenem MIC at 47 uM measured after 20 hrs by broth microdilution assay (reference value: 10.06 mg/L)
Escherichia coli [5] = assay: Antibacterial activity against clinical isolate Escherichia coli K12 J53-ST10 618/15 expressing blaNDM-1 assessed as meropenem MIC at 23.5 uM measured after 20 hrs by broth microdilution assay (reference value: 5.03 mg/L)
Escherichia coli [6] = assay: Antibacterial activity against clinical isolate Escherichia coli K12 J53-ST10 618/15 expressing blaNDM-1 assessed as meropenem MIC at 47 uM measured after 20 hrs by broth microdilution assay (reference value: 10.06 mg/L)
Escherichia coli [7] = assay: Antibacterial activity against clinical isolate Escherichia coli K12 J53-ST10 699/15 expressing blaNDM-1 assessed as meropenem MIC at 23.5 uM measured after 20 hrs by broth microdilution assay (reference value: 5.03 mg/L)
Escherichia coli [8] = assay: Antibacterial activity against clinical isolate Escherichia coli K12 J53-ST10 699/15 expressing blaNDM-1 assessed as meropenem MIC at 47 uM measured after 20 hrs by broth microdilution assay (reference value: 10.06 mg/L)
Acinetobacter baumannii [9] = assay: Antibacterial activity against clinical isolate Acinetobacter baumannii IC 19/09 expressing blaNDM-1 co-expressing blaOXA-64 assessed as meropenem MIC at 23.5 uM measured after 20 hrs by broth microdilution assay (reference value: 5.03 mg/L)
Acinetobacter baumannii [10] = assay: Antibacterial activity against clinical isolate Acinetobacter baumannii IC 19/09 expressing blaNDM-1 co-expressing blaOXA-64 assessed as meropenem MIC at 47 uM measured after 20 hrs by broth microdilution assay (reference value: 10.06 mg/L)
Escherichia coli [11] = assay: Antibacterial activity against clinical isolate Escherichia coli ST1012/10 expressing blaNDM-1 co-expressing blaTEM-1/blaCTX-M-15/blaOXA-1 and blaOXA-2 assessed as meropenem MIC at 23.5 uM measured after 20 hrs by broth microdilution assay (reference value: 5.03 mg/L)
Escherichia coli [12] = assay: Antibacterial activity against clinical isolate Escherichia coli ST1012/10 expressing blaNDM-1 co-expressing blaTEM-1/blaCTX-M-15/blaOXA-1 and blaOXA-2 assessed as meropenem MIC at 47 uM measured after 20 hrs by broth microdilution assay (reference value: 10.06 mg/L)
Klebsiella pneumoniae [13] = assay: Antibacterial activity against clinical isolate Klebsiella pneumoniae ST1493/10 expressing blaNDM-1 co-expressing blaCMY-2like/blaTEM-1/blaCTX-M-15/blaSHV-28/blaOXA-1 and blaOXA-9 assessed as meropenem MIC at 23.5 uM measured after 20 hrs by broth microdilution assay (reference value: 5.03 mg/L)
Klebsiella pneumoniae [14] = assay: Antibacterial activity against clinical isolate Klebsiella pneumoniae ST1493/10 expressing blaNDM-1 co-expressing blaCMY-2like/blaTEM-1/blaCTX-M-15/blaSHV-28/blaOXA-1 and blaOXA-9 assessed as meropenem MIC at 47 uM measured after 20 hrs by broth microdilution assay (reference value: 10.06 mg/L)
Klebsiella pneumoniae [15] = assay: Antibacterial activity against clinical isolate Klebsiella pneumoniae 50/11 expressing blaNDM-1 co-expressing blaTEM-1/blaSHV-28/blaTEM-1/blaCTX-M-15 and blaOXA-1 assessed as meropenem MIC at 23.5 uM measured after 20 hrs by broth microdilution assay (reference value: 5.03 mg/L)
Klebsiella pneumoniae [16] = assay: Antibacterial activity against clinical isolate Klebsiella pneumoniae 50/11 expressing blaNDM-1 co-expressing blaTEM-1/blaSHV-28/blaTEM-1/blaCTX-M-15 and blaOXA-1 assessed as meropenem MIC at 47 uM measured after 20 hrs by broth microdilution assay (reference value: 10.06 mg/L)
Klebsiella pneumoniae [17] = assay: Antibacterial activity against clinical isolate Klebsiella pneumoniae 50/20 expressing blaNDM-5 co-expressing blaTEM-1 and blaSHV-1 assessed as meropenem MIC at 23.5 uM measured after 20 hrs by broth microdilution assay (reference value: 5.03 mg/L)
Klebsiella pneumoniae [18] = assay: Antibacterial activity against clinical isolate Klebsiella pneumoniae 50/20 expressing blaNDM-5 co-expressing blaTEM-1 and blaSHV-1 assessed as meropenem MIC at 47 uM measured after 20 hrs by broth microdilution assay (reference value: 10.06 mg/L)
Escherichia coli [19] = assay: Antibacterial activity against clinical isolate Escherichia coli 371/12 expressing blaNDM-7 co-expressing blaCTX-M-15 and blaOXA-1 assessed as meropenem MIC at 23.5 uM measured after 20 hrs by broth microdilution assay (reference value: 5.03 mg/L)
Escherichia coli [20] = assay: Antibacterial activity against clinical isolate Escherichia coli 371/12 expressing blaNDM-7 co-expressing blaCTX-M-15 and blaOXA-1 assessed as meropenem MIC at 47 uM measured after 20 hrs by broth microdilution assay (reference value: 10.06 mg/L)
Klebsiella pneumoniae [21] = assay: Antibacterial activity against clinical isolate Klebsiella pneumoniae ST23213/19 expressing blaNDM-1 co-expressing blaOXA-48/blaSHV-11/blaCTX-M-15 and blaOXA-1 assessed as meropenem MIC at 23.5 uM measured after 20 hrs by broth microdilution assay (reference value: 5.03 mg/L)
Klebsiella pneumoniae [22] = assay: Antibacterial activity against clinical isolate Klebsiella pneumoniae ST23213/19 expressing blaNDM-1 co-expressing blaOXA-48/blaSHV-11/blaCTX-M-15 and blaOXA-1 assessed as meropenem MIC at 47 uM measured after 20 hrs by broth microdilution assay (reference value: 10.06 mg/L)
Klebsiella pneumoniae [23] = assay: Antibacterial activity against clinical isolate Klebsiella pneumoniae 62/07 expressing blaVIM-19 co-expressing blaSHV-1/blaCTX-M-14 and blaCMY-4 assessed as meropenem MIC at 23.5 uM measured after 20 hrs by broth microdilution assay (reference value: 5.03 mg/L)
Klebsiella pneumoniae [24] = assay: Antibacterial activity against clinical isolate Klebsiella pneumoniae 62/07 expressing blaVIM-19 co-expressing blaSHV-1/blaCTX-M-14 and blaCMY-4 assessed as meropenem MIC at 47 uM measured after 20 hrs by broth microdilution assay (reference value: 10.06 mg/L)

Measured: MIC

Oc1c(Cl)cc(Cl)c2cccnc12 [CHLOROXINE]
4 µg/mL: Klebsiella pneumoniae [15] | Klebsiella pneumoniae [17]
128 µg/mL: Klebsiella pneumoniae [13] | Klebsiella pneumoniae [21]
8 µg/mL: Klebsiella pneumoniae [23]
16 µg/mL: Klebsiella pneumoniae [14] | Klebsiella pneumoniae [22]
≤ 0.125 µg/mL: Escherichia coli [1] | Escherichia coli [2] | Escherichia coli [3] | Escherichia coli [4] | Escherichia coli [5] | Escherichia coli [6] | Escherichia coli [7] | Escherichia coli [8] | Acinetobacter baumannii [9] | Acinetobacter baumannii [10] | Escherichia coli [11] | Escherichia coli [12] | Klebsiella pneumoniae [16] | Klebsiella pneumoniae [18] | Escherichia coli [19] | Escherichia coli [20] | Klebsiella pneumoniae [24]
